Assay results from PMC5218480 (PLoS ONE, 2017).

Tested on: MV-4-11 cells
Test: Gene expression microarray analysis (Affymetrix PrimeView) and GSEA
Assay type: cell-based, human
Set-up: RFU PODN (11730768_x_at) / Fold change /veh PODN (11730768_x_at) / RFU LINC00158 (11744669_a_at) / Fold change /veh LINC00158 (11744669_a_at) / RFU DUSP10 (11751237_a_at) / Fold change /veh DUSP10 (11751237_a_at) / RFU ID3 (11757404_x_at) / Fold change /veh ID3 (11757404_x_at) / RFU PLEKHG5 (11737974_s_at) / Fold change /veh PLEKHG5 (11737974_s_at) / RFU LRRC4B (11730491_at) / Fold change /veh LRRC4B (11730491_at) / RFU GIMAP4 (11747438_a_at) / Fold change /veh GIMAP4 (11747438_a_at) / RFU KRT8 (11758183_x_at) / Fold change /veh KRT8 (11758183_x_at) / RFU CNN1 (11734310_a_at) / Fold change /veh CNN1 (11734310_a_at) / RFU VPS37D (11726825_at) / Fold change /veh VPS37D (11726825_at) / RFU C10orf10 (11716522_x_at) / Fold change /veh C10orf10 (11716522_x_at) / RFU KIR2DL2 /// KIR2DL4 /// KIR2DL5A /// KIR2DL5B /// KIR2DS1 /// KIR2DS2 /// KIR2DS3 /// KIR2DS4 /// KIR3DL3 /// KIR3DL3 /// KIR3DS1 (11738374_at) / Fold change /veh KIR2DL2 /// KIR2DL4 /// KIR2DL5A /// KIR2DL5B /// KIR2DS1 /// KIR2DS2 /// KIR2DS3 /// KIR2DS4 /// KIR3DL3 /// KIR3DL3 /// KIR3DS1 (11738374_at) / RFU C1QL1 (11718748_at) / Fold change /veh C1QL1 (11718748_at) / RFU TMPRSS4 (11747572_a_at) / Fold change /veh TMPRSS4 (11747572_a_at) / RFU HAMP (11756126_x_at) / Fold change /veh HAMP (11756126_x_at) / RFU RNFT2 (11725882_a_at) / Fold change /veh RNFT2 (11725882_a_at) / RFU NR4A2 (11747474_a_at) / Fold change /veh NR4A2 (11747474_a_at) / RFU ABCC12 (11746883_a_at) / Fold change /veh ABCC12 (11746883_a_at) / RFU TMEM136 (11760407_x_at) / Fold change /veh TMEM136 (11760407_x_at) / RFU CLDN22 /// WWC2 (11732394_at) / Fold change /veh CLDN22 /// WWC2 (11732394_at) / RFU HLA-DPB1 (11760878_x_at) / Fold change /veh HLA-DPB1 (11760878_x_at) / RFU SPINT1 (11716480_a_at) / Fold change /veh SPINT1 (11716480_a_at) / RFU GAP43 (11754022_s_at) / Fold change /veh GAP43 (11754022_s_at) / RFU A4GNT (11735810_at) / Fold change /veh A4GNT (11735810_at) / RFU PRB3 (11715151_x_at) / Fold change /veh PRB3 (11715151_x_at) / RFU TUBB4B (11761932_at) / Fold change /veh TUBB4B (11761932_at) / RFU CAPN14 (11732068_a_at) / Fold change /veh CAPN14 (11732068_a_at) / RFU TMCC2 (11721928_a_at) / Fold change /veh TMCC2 (11721928_a_at) / RFU IRGQ (11745062_a_at) / Fold change /veh IRGQ (11745062_a_at) / RFU FAM174B (11720279_a_at) / Fold change /veh FAM174B (11720279_a_at) / RFU TMPRSS4 (11748680_a_at) / Fold change /veh TMPRSS4 (11748680_a_at) / RFU FAM212B (11763350_a_at) / Fold change /veh FAM212B (11763350_a_at) / RFU PLEKHG5 (11743358_a_at) / Fold change /veh PLEKHG5 (11743358_a_at) / RFU ZSCAN30 (11745921_a_at) / Fold change /veh ZSCAN30 (11745921_a_at) / RFU CMKLR1 (11741424_a_at) / Fold change /veh CMKLR1 (11741424_a_at) / RFU LOC101060620 /// MAPK8IP1 (11723275_at) / Fold change /veh LOC101060620 /// MAPK8IP1 (11723275_at) / RFU SPTSSB (11747773_x_at) / Fold change /veh SPTSSB (11747773_x_at) / RFU PRSS12 (11739890_at) / Fold change /veh PRSS12 (11739890_at) / RFU BIN1 (11741810_x_at) / Fold change /veh BIN1 (11741810_x_at) / RFU WNT11 (11732464_a_at) / Fold change /veh WNT11 (11732464_a_at) / RFU C10orf10 (11716521_a_at) / Fold change /veh C10orf10 (11716521_a_at) / RFU C5orf56 (11738089_at) / Fold change /veh C5orf56 (11738089_at) / RFU CYB561 (11721691_x_at) / Fold change /veh CYB561 (11721691_x_at) / RFU ANKRD19P (11752326_a_at) / Fold change /veh ANKRD19P (11752326_a_at) / RFU OR2T12 /// OR2T33 /// OR2T8 (11738714_s_at) / Fold change /veh OR2T12 /// OR2T33 /// OR2T8 (11738714_s_at) / RFU VCAN (11748164_a_at) / Fold change /veh VCAN (11748164_a_at) / RFU JSRP1 (11732532_at) / Fold change /veh JSRP1 (11732532_at) / RFU KRTAP10-11 (11738290_x_at) / Fold change /veh KRTAP10-11 (11738290_x_at) / RFU MYO3A (11730013_a_at) / Fold change /veh MYO3A (11730013_a_at) / RFU EBF3 (11725865_a_at) / Fold change /veh EBF3 (11725865_a_at) / RFU CAMK2N1 (11719241_x_at) / Fold change /veh CAMK2N1 (11719241_x_at) / RFU C5orf56 (11738088_a_at) / Fold change /veh C5orf56 (11738088_a_at) / RFU OLFML3 (11715873_a_at) / Fold change /veh OLFML3 (11715873_a_at) / RFU LOC100653217 /// NTM (11731650_a_at) / Fold change /veh LOC100653217 /// NTM (11731650_a_at) / RFU MAPK11 (11762145_a_at) / Fold change /veh MAPK11 (11762145_a_at) / RFU FIZ1 (11724087_x_at) / Fold change /veh FIZ1 (11724087_x_at) / RFU OASL (11726364_x_at) / Fold change /veh OASL (11726364_x_at) / RFU SOX15 (11748057_x_at) / Fold change /veh SOX15 (11748057_x_at) / RFU CD79A (11719716_a_at) / Fold change /veh CD79A (11719716_a_at) / RFU HIST1H1D (11736915_at) / Fold change /veh HIST1H1D (11736915_at) / RFU CASKIN2 (11723855_a_at) / Fold change /veh CASKIN2 (11723855_a_at) / RFU LOC730098 (11760151_x_at) / Fold change /veh LOC730098 (11760151_x_at) / RFU OR4N2 (11742367_at) / Fold change /veh OR4N2 (11742367_at) / RFU PRRT2 (11749266_a_at) / Fold change /veh PRRT2 (11749266_a_at) / RFU SNX32 (11753110_a_at) / Fold change /veh SNX32 (11753110_a_at) / RFU CDHR5 (11726645_a_at) / Fold change /veh CDHR5 (11726645_a_at) / RFU RCAN1 (11760418_a_at) / Fold change /veh RCAN1 (11760418_a_at) / RFU FAM167A (11723789_a_at) / Fold change /veh FAM167A (11723789_a_at) / RFU FAM26E (11764081_at) / Fold change /veh FAM26E (11764081_at) / RFU ISYNA1 (11749810_s_at) / Fold change /veh ISYNA1 (11749810_s_at) / RFU ACY1 (11761880_at) / Fold change /veh ACY1 (11761880_at) / RFU 11764098_at / Fold change /veh 11764098_at / RFU SAMD14 (11745864_x_at) / Fold change /veh SAMD14 (11745864_x_at) / RFU NPB (11741838_a_at) / Fold change /veh NPB (11741838_a_at) / RFU TMPRSS6 (11731388_a_at) / Fold change /veh TMPRSS6 (11731388_a_at) / RFU KRTAP10-2 (11738614_at) / Fold change /veh KRTAP10-2 (11738614_at) / RFU ARHGAP8 /// PRR5-ARHGAP8 (11727945_x_at) / Fold change /veh ARHGAP8 /// PRR5-ARHGAP8 (11727945_x_at) / RFU KRTAP5-7 /// NADSYN1 (11734609_at) / Fold change /veh KRTAP5-7 /// NADSYN1 (11734609_at) / RFU RASL12 (11751679_a_at) / Fold change /veh RASL12 (11751679_a_at) / RFU CDKN2B (11736163_a_at) / Fold change /veh CDKN2B (11736163_a_at) / RFU PRF1 (11729649_at) / Fold change /veh PRF1 (11729649_at) / RFU, ZNF638 /// ZNF638-IT1 / Fold change vs veh, ZNF638 /// ZNF638-IT1 / RFU, PANK3 / Fold change vs veh, PANK3 / RFU, SH3YL1 / Fold change vs veh, SH3YL1 / RFU, ZEB2 / Fold change vs veh, ZEB2 / RFU, NRIP1 / Fold change vs veh, NRIP1 / RFU, PTTG1IP / Fold change vs veh, PTTG1IP / RFU, CAPN2 / Fold change vs veh, CAPN2 / RFU, MED14 / Fold change vs veh, MED14 / RFU, SNORA58 / Fold change vs veh, SNORA58 / RFU, C1orf63 / Fold change vs veh, C1orf63 / RFU, LRRFIP1 / Fold change vs veh, LRRFIP1 / RFU, NDUFAF7 / Fold change vs veh, NDUFAF7 / RFU, SLC12A2 / Fold change vs veh, SLC12A2 / RFU, IBTK / Fold change vs veh, IBTK / RFU, ESF1 / Fold change vs veh, ESF1 / Fold change vs veh, TMEM50B / RFU, TAOK1 / Fold change vs veh, TAOK1 / RFU, ACBD3 / Fold change vs veh, ACBD3 / RFU, TMA16 / Fold change vs veh, TMA16 / RFU, RWDD3 / Fold change vs veh, RWDD3 / RFU, BCAT1 / Fold change vs veh, BCAT1 / RFU, EDEM3 / Fold change vs veh, EDEM3 / RFU, TMEM33 / Fold change vs veh, TMEM33 / RFU, WDR75 / Fold change vs veh, WDR75 / RFU, AHCTF1 / Fold change vs veh, AHCTF1 / RFU, TFRC / Fold change vs veh, TFRC / RFU, ZDHHC17 / Fold change vs veh, ZDHHC17 / RFU, NOM1 / Fold change vs veh, NOM1 / RFU, ARL8B / Fold change vs veh, ARL8B / RFU, ZBTB11 / Fold change vs veh, ZBTB11 / RFU, TAMM41 / Fold change vs veh, TAMM41 / RFU, KIAA1704 /// LOC100996395 / Fold change vs veh, KIAA1704 /// LOC100996395 / RFU, ING1 / Fold change vs veh, ING1 / RFU, TRMT61B / Fold change vs veh, TRMT61B / RFU, FUBP3 / Fold change vs veh, FUBP3 / RFU, TP53 / Fold change vs veh, TP53 / RFU, TNKS2 / Fold change vs veh, TNKS2 / RFU, ZFP14 / Fold change vs veh, ZFP14 / RFU, ACTR2 / Fold change vs veh, ACTR2 / RFU, PPP3R1 / Fold change vs veh, PPP3R1 / RFU, PIK3R1 / Fold change vs veh, PIK3R1 / RFU, HNRNPA1 / Fold change vs veh, HNRNPA1 / RFU, RNF170 / Fold change vs veh, RNF170 / RFU, ZNF28 / Fold change vs veh, ZNF28 / RFU, RNGTT / Fold change vs veh, RNGTT / RFU, OGT / Fold change vs veh, OGT / RFU, BRD1 / Fold change vs veh, BRD1 / RFU, MARS / Fold change vs veh, MARS / RFU, ZNF655 / Fold change vs veh, ZNF655 / RFU, FAHD1 / Fold change vs veh, FAHD1 / RFU, BDP1 / Fold change vs veh, BDP1 / RFU, LRRCC1 / Fold change vs veh, LRRCC1 / RFU, ARID1A / Fold change vs veh, ARID1A / RFU, ZNF146 / Fold change vs veh, ZNF146 / RFU, ZNF330 / Fold change vs veh, ZNF330 / RFU, GPN3 / Fold change vs veh, GPN3 / RFU, C9orf123 / Fold change vs veh, C9orf123 / RFU, N4BP2L2 / Fold change vs veh, N4BP2L2 / RFU, ARFIP1 / Fold change vs veh, ARFIP1 / RFU, FAM179B / Fold change vs veh, FAM179B / RFU, BCL10 / Fold change vs veh, BCL10 / RFU, UHRF1BP1L / Fold change vs veh, UHRF1BP1L / RFU, BET1 / Fold change vs veh, BET1 / RFU, CNOT2 / Fold change vs veh, CNOT2 / RFU, ZNF268 / Fold change vs veh, ZNF268 / Fold change vs veh, ZNF507 / RFU, DGCR2 / Fold change vs veh, DGCR2 / RFU, WDSUB1 / Fold change vs veh, WDSUB1 / Fold change vs veh, HSP90B1 /// MIR3652 / RFU, ADSS / Fold change vs veh, ADSS / RFU, GK / Fold change vs veh, GK / RFU, ZNF148 / Fold change vs veh, ZNF148 / RFU, TAF9 / Fold change vs veh, TAF9 / RFU, SLC1A5 / Fold change vs veh, SLC1A5 / RFU, SLMO2 / Fold change vs veh, SLMO2 / RFU, ABCC4 / Fold change vs veh, ABCC4 / RFU, LOC101060439 /// RAP1B / Fold change vs veh, LOC101060439 /// RAP1B / RFU, RFX7 / Fold change vs veh, RFX7 / RFU, GTPBP10 / Fold change vs veh, GTPBP10 / RFU, CNEP1R1 / Fold change vs veh, CNEP1R1 / RFU, BIVM-ERCC5 /// ERCC5 / Fold change vs veh, BIVM-ERCC5 /// ERCC5 / RFU, ILF3 / Fold change vs veh, ILF3 / RFU 11762660_at / Fold change /veh 11762660_at / RFU VCAN (11757783_s_at) / Fold change /veh VCAN (11757783_s_at) / RFU DDX43 (11728927_at) / Fold change /veh DDX43 (11728927_at) / RFU KRT8 (11758188_x_at) / Fold change /veh KRT8 (11758188_x_at) / RFU NKD1 (11759106_at) / Fold change /veh NKD1 (11759106_at) / RFU SRD5A1 (11742802_a_at) / Fold change /veh SRD5A1 (11742802_a_at) / RFU TPSAB1 /// TPSB2 (11721975_s_at) / Fold change /veh TPSAB1 /// TPSB2 (11721975_s_at) / RFU GSTM3 (11746129_a_at) / Fold change /veh GSTM3 (11746129_a_at) / RFU IL23R (11737362_x_at) / Fold change /veh IL23R (11737362_x_at) / RFU TMEM51 (11727254_a_at) / Fold change /veh TMEM51 (11727254_a_at) / RFU PIWIL2 (11732686_x_at) / Fold change /veh PIWIL2 (11732686_x_at) / RFU ORM1 (11744905_x_at) / Fold change /veh ORM1 (11744905_x_at) / RFU CCDC152 (11743942_at) / Fold change /veh CCDC152 (11743942_at) / RFU ECM1 (11717891_a_at) / Fold change /veh ECM1 (11717891_a_at) / RFU IL23R (11748794_a_at) / Fold change /veh IL23R (11748794_a_at) / RFU TNFAIP8L3 (11732012_x_at) / Fold change /veh TNFAIP8L3 (11732012_x_at) / RFU MBOAT4 (11741988_at) / Fold change /veh MBOAT4 (11741988_at) / RFU 11764193_at / Fold change /veh 11764193_at / RFU TMEM53 (11763286_at) / Fold change /veh TMEM53 (11763286_at) / RFU MAGEB2 (11727129_at) / Fold change /veh MAGEB2 (11727129_at) / RFU TMEM200A (11744735_a_at) / Fold change /veh TMEM200A (11744735_a_at) / RFU CCDC152 (11751479_a_at) / Fold change /veh CCDC152 (11751479_a_at) / RFU FAM211A (11726209_a_at) / Fold change /veh FAM211A (11726209_a_at) / RFU RGS16 (11746705_a_at) / Fold change /veh RGS16 (11746705_a_at) / RFU VCAN (11755009_s_at) / Fold change /veh VCAN (11755009_s_at) / RFU RHOB (11743442_s_at) / Fold change /veh RHOB (11743442_s_at) / RFU RGS16 (11720943_a_at) / Fold change /veh RGS16 (11720943_a_at) / RFU RGS16 (11720944_at) / Fold change /veh RGS16 (11720944_at) / RFU, VPS4B / Fold change vs veh, VPS4B / RFU, CREB1 / Fold change vs veh, CREB1 / RFU, DNAJC13 / Fold change vs veh, DNAJC13 / RFU, GNAQ / Fold change vs veh, GNAQ / RFU, CDK5R1 / Fold change vs veh, CDK5R1 / RFU, ZRANB3 / Fold change vs veh, ZRANB3 / RFU, CUL4A / Fold change vs veh, CUL4A / RFU, CCNY / Fold change vs veh, CCNY / RFU, UFL1 / Fold change vs veh, UFL1 / RFU, COG3 / Fold change vs veh, COG3 / RFU, DIAPH2 / Fold change vs veh, DIAPH2 / RFU, SKA2 / Fold change vs veh, SKA2 / RFU, AFF3 / Fold change vs veh, AFF3 / RFU, LMF1 / Fold change vs veh, LMF1 / RFU, IPO11 / Fold change vs veh, IPO11 / RFU, DFFB / Fold change vs veh, DFFB / RFU, FOXP1 / Fold change vs veh, FOXP1 / RFU, CARD8 / Fold change vs veh, CARD8 / RFU, STRN3 / Fold change vs veh, STRN3 / RFU, ADK / Fold change vs veh, ADK / RFU, RASSF2 / Fold change vs veh, RASSF2 / RFU, WIPF1 / Fold change vs veh, WIPF1 / RFU, LARP1B / Fold change vs veh, LARP1B / RFU, RASA1 / Fold change vs veh, RASA1 / RFU, RB1 / Fold change vs veh, RB1 / RFU, PPFIA1 / Fold change vs veh, PPFIA1 / RFU, MAT2A / Fold change vs veh, MAT2A / RFU, CCT5 / Fold change vs veh, CCT5 / RFU, WDR92 / Fold change vs veh, WDR92 / RFU, CUX1 / Fold change vs veh, CUX1 / RFU, TTC7A / Fold change vs veh, TTC7A / RFU, TMEM135 / Fold change vs veh, TMEM135 / RFU, DEPTOR / Fold change vs veh, DEPTOR / RFU, CPM / Fold change vs veh, CPM / RFU, DNAJB6 / Fold change vs veh, DNAJB6 / RFU, CACNA2D3 / Fold change vs veh, CACNA2D3 / RFU, DTX4 / Fold change vs veh, DTX4 / RFU, TFCP2 / Fold change vs veh, TFCP2 / RFU, GMCL1 /// GMCL1P1 / Fold change vs veh, GMCL1 /// GMCL1P1 / RFU, AEBP2 / Fold change vs veh, AEBP2 / RFU, SNHG1 /// SNORD22 /// SNORD25 /// SNORD26 /// SNORD27 /// SNORD28 /// SNORD29 /// SNORD31 / Fold change vs veh, SNHG1 /// SNORD22 /// SNORD25 /// SNORD26 /// SNORD27 /// SNORD28 /// SNORD29 /// SNORD31 / Fold change (Aza/veh), C12orf56 (ProbeSet 11735607_a_at) / Fold change (ACY-1035/veh), C12orf56 (ProbeSet 11735607_a_at) / Fold change (Aza/veh), FGFR1OP (ProbeSet 11751329_s_at) / Fold change (ACY-1035/veh), FGFR1OP (ProbeSet 11751329_s_at) / Fold change (Aza/veh), VPS36 (ProbeSet 11739960_a_at) / Fold change (ACY-1035/veh), VPS36 (ProbeSet 11739960_a_at) / RFU SYPL1 (11715823_x_at) / Fold change /veh SYPL1 (11715823_x_at) / RFU IGFBP7 (11715501_s_at) / Fold change /veh IGFBP7 (11715501_s_at) / RFU REEP3 (11722064_at) / Fold change /veh REEP3 (11722064_at) / RFU IGLL1 (11728026_x_at) / Fold change /veh IGLL1 (11728026_x_at): dose or concentration left out as unconfirmed
Conditions: ProbeSet 11724763_s_at; LIST D

With `Nc1ncn([C@@H]2O[C@H](CO)[C@@H](O)[C@H]2O)c(=O)n1` [azacitidine] the “Fold change vs veh, DEPTOR” value was 0.65.
